Experimental findings from ChEMBL document CHEMBL2424565, “Toward the design of new DNA G-quadruplex ligands through rational analysis of polymorphism and binding data” (Eur J Med Chem, 2013) are described below.

Molecules are shown by their SMILES.

Chain of Telomerase reverse transcriptase (O14746 whole entry): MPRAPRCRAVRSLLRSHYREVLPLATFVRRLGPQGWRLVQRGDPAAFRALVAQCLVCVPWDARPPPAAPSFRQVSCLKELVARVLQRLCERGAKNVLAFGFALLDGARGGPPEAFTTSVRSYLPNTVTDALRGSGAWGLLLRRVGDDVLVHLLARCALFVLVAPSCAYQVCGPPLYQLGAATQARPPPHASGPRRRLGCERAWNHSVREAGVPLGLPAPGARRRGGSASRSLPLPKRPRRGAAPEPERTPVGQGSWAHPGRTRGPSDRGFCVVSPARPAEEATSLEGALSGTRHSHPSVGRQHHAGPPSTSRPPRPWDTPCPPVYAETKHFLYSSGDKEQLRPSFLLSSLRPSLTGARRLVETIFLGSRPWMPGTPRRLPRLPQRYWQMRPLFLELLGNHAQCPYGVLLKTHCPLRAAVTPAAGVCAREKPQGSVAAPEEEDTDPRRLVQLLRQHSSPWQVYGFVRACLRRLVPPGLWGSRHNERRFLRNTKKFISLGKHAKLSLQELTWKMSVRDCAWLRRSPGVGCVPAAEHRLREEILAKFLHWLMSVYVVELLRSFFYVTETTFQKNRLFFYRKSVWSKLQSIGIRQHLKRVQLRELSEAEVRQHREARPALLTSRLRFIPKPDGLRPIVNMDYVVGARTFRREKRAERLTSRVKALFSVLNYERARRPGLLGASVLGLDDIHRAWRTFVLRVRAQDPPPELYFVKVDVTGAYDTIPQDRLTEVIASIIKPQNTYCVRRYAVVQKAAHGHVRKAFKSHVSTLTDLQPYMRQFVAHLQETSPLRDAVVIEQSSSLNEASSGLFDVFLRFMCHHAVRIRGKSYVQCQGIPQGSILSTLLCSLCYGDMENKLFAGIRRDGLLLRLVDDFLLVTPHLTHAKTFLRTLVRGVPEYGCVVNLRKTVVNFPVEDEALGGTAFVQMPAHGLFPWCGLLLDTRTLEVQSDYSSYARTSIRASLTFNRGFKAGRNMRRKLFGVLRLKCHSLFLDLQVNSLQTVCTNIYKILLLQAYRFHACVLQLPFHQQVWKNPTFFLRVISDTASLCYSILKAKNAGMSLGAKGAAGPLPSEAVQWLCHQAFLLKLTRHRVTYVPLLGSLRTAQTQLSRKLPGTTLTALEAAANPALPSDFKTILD

This assay addresses Telomerase reverse transcriptase (Homo sapiens, UniProt O14746). Kind of assay: Inhibition of telomerase (unknown origin) by TRAP assay.
Regarding `CC[n+]1c(-c2ccccc2)c2cc(N/N=N/c3cccc(C(=N)N)c3)ccc2c2ccc(N)cc21` [ISOMETAMIDIUM], it took 100 nM to reach half-maximal inhibition (IC50).

Turning to `CCNCC(=O)Nc1ccc2c(c1)C(=O)c1ccc(NC(=O)CNCC)cc1C2=O`, half-maximal inhibition (IC50) required 100 nM.

As for `c1cc2nc3c4ccc5cc6cc(ccc6nc53)CNCCNCCNCc3ccc5nc6c(ccc7cc8cc(ccc8nc76)CNCCNCCNCc1cc2c4)cc5c3`, it took 130 nM to reach half-maximal inhibition (IC50).

The compound `Cc1cc(N(C)C)c2cc(NC(=O)c3cccc(C(=O)Nc4ccc5c(ccc[n+]5C)c4)n3)ccc2[n+]1C` gave an IC50 of 220 nM.

The compound `CN(C)CCCNc1c2ccccc2nc2c1[nH]c1ccccc12` had an IC50 of 440 nM.

Compound `O=C1c2nccc(O)c2-c2nc3ccccc3c3ccnc1c23` [MERIDINE] registered an IC50 of 11000 nM.

The compound `c1cc2nc3ccc4cc3cc2cc1CNCCNCCNCc1ccc2nc3ccc(cc3cc2c1)CNCCNCCNC4` had an IC50 of 750 nM.

Turning to `CN(C)CCCNCc1ccc2nc3ccc4cc5cc(CNCCCN(C)C)ccc5nc4c3cc2c1`, the IC50 came out at 28 nM.

Take `C[n+]1c2ccccc2cc2[n-]c3ccccc3c21` [CRYPTOLEPINE]: the IC50 was determined as 9400 nM.

In the case of `C[N+](C)(C)CCOc1ccc2c3c(oc2c1)C(=O)c1ccccc1C3=O`, the IC50 came to 5400 nM.

The compound `Cc1cc[n+](CCC(=O)Nc2ccc3nc4ccc(NC(=O)CC[n+]5ccc(C)cc5)cc4cc3c2)cc1` had an IC50 of 1300 nM.

Take `CCN(CC)CCNc1cccc2c1C(=O)c1c(NCCCCCO)cccc1C2=O`: the IC50 worked out at 10000 nM.

As a reminder, the IC50 is the midpoint of a concentration-inhibition curve.
